Literature values in PMC9494641 (ACS Omega, 2022).

Columns and labels:
[1] = tested on: JAK2 expressing SET-2 cell line
[2] = tested on: JAK1; settings: read-out: IC50 JAK1
[3] = biological target: JAK2 (Homo sapiens, UniProt O60674); settings: read-out: Kd JAK2
Chain of JAK2 (O60674 808-1132 limits assumed): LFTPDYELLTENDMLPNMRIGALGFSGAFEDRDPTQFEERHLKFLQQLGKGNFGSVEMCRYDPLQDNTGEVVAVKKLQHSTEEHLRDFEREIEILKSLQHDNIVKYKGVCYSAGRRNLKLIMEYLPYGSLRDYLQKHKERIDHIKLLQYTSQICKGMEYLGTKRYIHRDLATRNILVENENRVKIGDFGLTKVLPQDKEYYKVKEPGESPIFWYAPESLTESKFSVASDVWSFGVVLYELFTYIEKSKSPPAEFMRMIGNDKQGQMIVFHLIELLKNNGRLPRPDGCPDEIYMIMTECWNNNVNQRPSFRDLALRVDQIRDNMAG

SMILES: Cc1cc(Nc2nc(N[C@@H](C)c3ccc(F)cc3)c(C#N)cc2F)[nH]n1 [AZ960]
- IC50 [1]: < 3 nM

SMILES: CCN(CC)CCC(CNc1ccnc2cc(Cl)ccc12)c1ccc(O)cc1 (stereo not drawn) [NSC13626]
- Kd [3]: 6600 nM
